# Laboratory results as given in patent publication US20250108038A1 (priority 2023, published 2025).
# Columns and labels:
# MDR1 = MDR1 (Homo sapiens, UniProt P08183); experiment: Vesicular transport inhibition assay, MDR1 (N-methyl quinidine)
# Method: (§1) Vesicular transport assays were performed with inside-out membrane vesicles prepared from cells overexpressing human ABC (efflux) transporters. The transporters were expressed by SOLVO Biotechnology in mammalian (HEK293) cells. The mammalian cells were stably transfected with the ABC transporter of interest. The assays were conducted according to the actual SOLVO VT assay protocols (PR-ASY-VT-General Protocol for Vesicular Transport Inhibition Assays).
# (§2) The membrane vesicle suspension was mixed with the ice-cold transport buffer, then the probe substrate solution was added. […] (for BCRP and MDR1). […] Reactions were quenched by the addition of 200 μL of ice-cold washing buffer and immediate filtration via glass fiber filters mounted to a 96-well plate (filter plate). The filters were washed (5×200 μL of ice-cold washing buffer), dried and the amount of substrate inside the filtered vesicles was determined by liquid scintillation counting.
# (§3) Incubation with AMP provided background activity values for all data points.
# OCT1 = biological target: T1, OCT1 (Homo sapiens, UniProt O15245); experiment: Uptake transporter inhibition assay, OCT1 (sumatriptan)
# T1 sequence (O15245 1-554): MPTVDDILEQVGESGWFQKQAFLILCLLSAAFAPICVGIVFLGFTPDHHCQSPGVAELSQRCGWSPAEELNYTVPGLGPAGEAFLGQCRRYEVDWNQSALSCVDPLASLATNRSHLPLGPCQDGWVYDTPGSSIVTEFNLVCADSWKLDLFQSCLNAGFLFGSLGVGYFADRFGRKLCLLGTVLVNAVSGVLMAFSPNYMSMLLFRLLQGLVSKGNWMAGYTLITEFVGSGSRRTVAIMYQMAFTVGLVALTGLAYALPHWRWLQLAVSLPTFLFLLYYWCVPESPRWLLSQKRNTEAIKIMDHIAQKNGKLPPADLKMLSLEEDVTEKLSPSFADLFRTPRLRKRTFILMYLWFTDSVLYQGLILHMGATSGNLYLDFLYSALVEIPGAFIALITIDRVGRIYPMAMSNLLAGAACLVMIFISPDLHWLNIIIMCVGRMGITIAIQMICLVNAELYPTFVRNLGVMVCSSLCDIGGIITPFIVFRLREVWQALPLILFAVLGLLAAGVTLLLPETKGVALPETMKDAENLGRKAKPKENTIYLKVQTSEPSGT
# Method: Uptake experiments were performed using HEK293 cells stably expressing the respective uptake transporters. The assays were conducted according to the actual SOLVO uptake transporter assay protocols (PR-ASY-UPT-General Protocol for Uptake Transporter Inhibition Assays).
# Cells were cultured at 37° C. in a humidified atmosphere containing 5% CO2 and were plated onto standard 96-well tissue culture plates.
# Before the experiment, the medium was removed, and the cells were washed twice with 100 μL of pre-warmed (37° C.) assay buffer listed in Table 15. The cells were pre-incubated at 37° C. for 30 minutes in assay buffer containing the test article at appropriate concentrations (Table 16), appropriate solvents for solvent controls and the reference inhibitor for reference inhibitor wells. After the pre-incubation step solutions were removed. Uptake experiments were performed at 37° C. in 50 μL of assay buffer containing the probe substrate and the test article or solvent and controls.
# After the experiment, cells were washed twice with 100 μL of appropriate cold buffer and lysed with 150 μL scintillation cocktail. Radiolabeled probe substrate transport was determined by liquid scintillation counting.
# Uptake of the probe substrate in control cells provided background activity values for all data points.
# BSEP = BSEP (Homo sapiens, UniProt O95342); experiment: Vesicular transport inhibition assay, BSEP (taurocholate)
# BSEP, sequence (O95342 whole entry): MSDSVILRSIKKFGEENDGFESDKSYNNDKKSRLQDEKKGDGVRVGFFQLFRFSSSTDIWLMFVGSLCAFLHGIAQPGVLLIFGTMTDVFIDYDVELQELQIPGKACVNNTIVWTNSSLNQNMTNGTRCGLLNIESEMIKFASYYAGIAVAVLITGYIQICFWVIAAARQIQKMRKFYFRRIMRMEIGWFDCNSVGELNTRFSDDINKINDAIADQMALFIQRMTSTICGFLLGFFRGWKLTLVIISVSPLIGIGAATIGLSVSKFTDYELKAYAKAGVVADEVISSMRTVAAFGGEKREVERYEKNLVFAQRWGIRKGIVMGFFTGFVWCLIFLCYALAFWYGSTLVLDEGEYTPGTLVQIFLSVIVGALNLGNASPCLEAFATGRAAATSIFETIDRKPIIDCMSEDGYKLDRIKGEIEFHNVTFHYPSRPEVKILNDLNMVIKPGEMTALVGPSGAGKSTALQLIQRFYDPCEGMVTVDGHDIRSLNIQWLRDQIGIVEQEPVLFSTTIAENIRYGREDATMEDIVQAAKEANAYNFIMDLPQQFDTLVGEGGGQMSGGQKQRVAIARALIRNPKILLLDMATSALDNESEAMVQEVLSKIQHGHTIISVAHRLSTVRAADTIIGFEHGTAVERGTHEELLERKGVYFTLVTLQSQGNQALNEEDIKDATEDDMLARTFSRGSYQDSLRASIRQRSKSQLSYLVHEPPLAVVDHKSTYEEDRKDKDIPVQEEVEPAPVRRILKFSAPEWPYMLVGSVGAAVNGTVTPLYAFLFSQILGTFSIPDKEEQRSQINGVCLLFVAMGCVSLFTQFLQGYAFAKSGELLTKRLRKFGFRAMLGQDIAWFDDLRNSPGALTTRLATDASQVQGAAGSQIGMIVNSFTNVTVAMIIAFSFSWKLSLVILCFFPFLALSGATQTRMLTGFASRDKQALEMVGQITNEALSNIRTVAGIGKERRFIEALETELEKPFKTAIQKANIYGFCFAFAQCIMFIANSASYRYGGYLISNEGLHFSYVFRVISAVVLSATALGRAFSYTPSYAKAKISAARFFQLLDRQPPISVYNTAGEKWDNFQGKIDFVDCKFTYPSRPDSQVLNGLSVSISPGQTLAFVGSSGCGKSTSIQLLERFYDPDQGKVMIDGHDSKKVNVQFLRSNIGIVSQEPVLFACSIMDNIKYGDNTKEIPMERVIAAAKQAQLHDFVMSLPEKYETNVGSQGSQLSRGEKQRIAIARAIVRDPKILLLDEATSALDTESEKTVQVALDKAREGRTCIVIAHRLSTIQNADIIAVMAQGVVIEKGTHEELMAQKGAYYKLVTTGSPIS
# Method: as §1, §2, §3
# [1] = 0.14 μM nominal, follow-up assay
# [2] = 1.24 μM nominal, follow-up assay
# [3] = 11.11 μM nominal, follow-up assay
# [4] = 33.33 μM nominal, follow-up assay
# [5] = 100.00 μM nominal, follow-up assay
# [6] = follow-up assay, bottom constrained to 0
# [7] = 0.14 μM nominal, 0.09 μM NSB corrected, follow-up assay
# [8] = 1.24 μM nominal, 0.86 μM NSB corrected, follow-up assay
# [9] = 10.00 μM nominal, 6.60 μM NSB corrected
# [10] = 11.11 μM nominal, 7.89 μM NSB corrected, follow-up assay
# [11] = 33.33 μM nominal, 24.33 μM NSB corrected, follow-up assay
# [12] = 100.00 μM nominal, 77.00 μM NSB corrected
# [13] = 100.00 μM nominal, 100.00 μM NSB corrected, follow-up assay
# [14] = […] nominal, 1.89 μM NSB corrected, follow-up assay
# MDR1, sequence (P08183 whole entry): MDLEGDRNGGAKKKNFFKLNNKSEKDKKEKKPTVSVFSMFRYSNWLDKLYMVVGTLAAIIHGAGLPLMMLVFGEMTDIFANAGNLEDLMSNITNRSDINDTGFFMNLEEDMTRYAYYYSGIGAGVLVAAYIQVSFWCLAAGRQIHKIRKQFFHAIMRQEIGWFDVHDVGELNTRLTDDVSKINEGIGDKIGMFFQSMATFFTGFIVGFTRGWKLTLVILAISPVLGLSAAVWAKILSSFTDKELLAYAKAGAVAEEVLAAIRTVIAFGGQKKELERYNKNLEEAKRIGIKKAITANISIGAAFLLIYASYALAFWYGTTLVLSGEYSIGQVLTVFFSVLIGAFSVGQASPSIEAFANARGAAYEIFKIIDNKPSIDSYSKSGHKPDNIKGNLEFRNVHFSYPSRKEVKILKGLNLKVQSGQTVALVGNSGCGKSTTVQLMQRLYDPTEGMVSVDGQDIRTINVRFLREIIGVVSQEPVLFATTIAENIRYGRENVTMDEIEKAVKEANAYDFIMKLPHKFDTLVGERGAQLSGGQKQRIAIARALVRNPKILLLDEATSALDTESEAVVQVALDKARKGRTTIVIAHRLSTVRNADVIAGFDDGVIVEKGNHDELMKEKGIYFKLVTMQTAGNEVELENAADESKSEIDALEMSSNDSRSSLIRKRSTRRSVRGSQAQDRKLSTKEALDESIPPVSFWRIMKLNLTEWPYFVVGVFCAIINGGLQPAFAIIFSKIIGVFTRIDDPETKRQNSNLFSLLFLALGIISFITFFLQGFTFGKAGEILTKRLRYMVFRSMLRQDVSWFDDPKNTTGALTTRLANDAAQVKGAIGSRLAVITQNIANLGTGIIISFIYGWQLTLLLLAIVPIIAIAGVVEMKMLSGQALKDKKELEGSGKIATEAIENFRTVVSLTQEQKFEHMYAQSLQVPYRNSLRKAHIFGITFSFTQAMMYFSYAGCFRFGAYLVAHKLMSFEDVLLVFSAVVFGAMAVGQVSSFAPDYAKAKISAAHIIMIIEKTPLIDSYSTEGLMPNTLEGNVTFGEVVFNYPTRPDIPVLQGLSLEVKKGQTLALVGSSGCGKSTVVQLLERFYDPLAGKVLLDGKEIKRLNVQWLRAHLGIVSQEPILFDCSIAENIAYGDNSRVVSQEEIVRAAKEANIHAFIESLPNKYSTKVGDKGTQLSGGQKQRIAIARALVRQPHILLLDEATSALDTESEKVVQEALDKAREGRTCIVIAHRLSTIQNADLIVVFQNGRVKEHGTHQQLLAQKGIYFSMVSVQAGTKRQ
smiles,measurement,setting,value
Clc1ccc(C2(OCC3OCCO3)c3ccccc3C3=NCCN32)cc1 (stereo not drawn) [Compound I-19],ATP-dependent transport,MDR1; [1],"3,812.00 ± 42.21 cpm"
same,Relative ATP-dependent transport,MDR1; [1],101.02 ± 3.23 % of control
same,Relative inhibition,MDR1; [1],−1%
same,ATP-dependent transport,MDR1; [2],"3,744.33 ± 56.10 cpm"
same,Relative ATP-dependent transport,MDR1; [2],99.23 ± 3.33 % of control
same,Relative inhibition,MDR1; [2],1%
same,ATP-dependent transport,MDR1; 10.00 μM nominal,"1,845.67 ± 148.09 cpm"
same,Relative ATP-dependent transport,MDR1; 10.00 μM nominal,51.19 ± 4.18 % of control
same,Relative inhibition,MDR1; 10.00 μM nominal,49%
same,ATP-dependent transport,MDR1; [3],"2,730.67 ± 83.62 cpm"
same,Relative ATP-dependent transport,MDR1; [3],72.36 ± 3.10 % of control
same,Relative inhibition,MDR1; [3],28%
same,ATP-dependent transport,MDR1; [4],"1,363.00 ± 46.72 cpm"
same,Relative ATP-dependent transport,MDR1; [4],36.12 ± 1.64 % of control
same,Relative inhibition,MDR1; [4],64%
same,ATP-dependent transport,MDR1; 100.00 μM nominal,2.84 ± 21.41 cpm
same,Relative ATP-dependent transport,MDR1; 100.00 μM nominal,7.89 ± 0.61 % of control
same,Relative inhibition,MDR1; 100.00 μM nominal,92%
same,ATP-dependent transport,MDR1; [5],407.00 ± 29.39 cpm
same,Relative ATP-dependent transport,MDR1; [5],10.79 ± 0.84 % of control
same,Relative inhibition,MDR1; [5],89%
same,maximum inhibition of MDR1-mediated NMQ accumulation,"MDR1; 2-concentration assay, up to 100 μM (Compound A up to 50 μM)",92%
same,Maximum % inhibition,"MDR1; MDR1, inside-out membrane vesicles, NMQ (1 μM), NIO: No inhibition observed",89%
same,maximum inhibition of MDR1-mediated NMQ accumulation,MDR1; follow-up assay,89%
same,IC50,MDR1; [6],21 µM
same,Relative inhibition,OCT1; [7],16%
same,Relative transporter specific accumulation,OCT1; [7],84.03 ± 3.76 % of control
same,Transporter specific accumulation,OCT1; [7],896.33 ± 19.14 cpm
same,Relative inhibition,OCT1; [8],39%
same,Relative transporter specific accumulation,OCT1; [8],61.16 ± 2.59 % of control
same,Transporter specific accumulation,OCT1; [8],652.33 ± 10.37 cpm
same,Relative inhibition,OCT1; [9],71%
same,Relative transporter specific accumulation,OCT1; [9],29.35 ± 0.48 % of control
same,Transporter specific accumulation,OCT1; [9],930.00 ± 10.03 cpm
same,Relative inhibition,OCT1; [10],73%
same,Relative transporter specific accumulation,OCT1; [10],27.13 ± 1.77 % of control
same,Transporter specific accumulation,OCT1; [10],289.33 ± 15.11 cpm
same,Relative inhibition,OCT1; [11],86%
same,Relative transporter specific accumulation,OCT1; [11],14.47 ± 0.94 % of control
same,Transporter specific accumulation,OCT1; [11],154.33 ± 8.03 cpm
same,Relative inhibition,OCT1; [12],92%
same,Relative transporter specific accumulation,OCT1; [12],8.17 ± 0.48 % of control
same,Transporter specific accumulation,OCT1; [12],259.00 ± 14.94 cpm
same,Relative inhibition,OCT1; [13],92%
same,Relative transporter specific accumulation,OCT1; [13],7.84 ± 1.11 % of control
same,Transporter specific accumulation,OCT1; [13],83.67 ± 11.38 cpm
same,maximum inhibition of OCT1-mediated sumatriptan accumulation,"OCT1; 2-concentration assay, 100 μM (Compound A 30 μM)",92%
same,Maximum % inhibition,"OCT1; OCT1, HEK293 cells, sumatriptan (10 μM), NIO: no inhibition observed",92%
same,Relative inhibition,OCT1; [14],55%
same,Relative transporter specific accumulation,OCT1; [14],45.47 ± 2.44 % of control
same,Transporter specific accumulation,OCT1; [14],485.00 ± 17.73 cpm
same,maximum inhibition of OCT1-mediated sumatriptan accumulation,OCT1; follow-up assay,92%
same,IC50,"OCT1; follow-up assay, NSB-corrected concentrations for Compound I-19",3.32 µM
same,ATP-dependent transport,BSEP; [1],"5,664.33 ± 228.93 cpm"
same,Relative ATP-dependent transport,BSEP; [1],114.35 ± 6.07 % of control
same,Relative inhibition,BSEP; [1],−14%
same,ATP-dependent transport,BSEP; [2],"4,919.33 ± 50.10 cpm"
same,Relative ATP-dependent transport,BSEP; [2],99.31 ± 4.70 % of control
same,Relative inhibition,BSEP; [2],1%
same,ATP-dependent transport,BSEP; 10.00 μM nominal,"4,410.33 ± 297.54 cpm"
same,Relative ATP-dependent transport,BSEP; 10.00 μM nominal,90.09 ± 6.36 % of control
same,Relative inhibition,BSEP; 10.00 μM nominal,10%
same,ATP-dependent transport,BSEP; [3],"4,442.00 ± 98.02 cpm"
same,Relative ATP-dependent transport,BSEP; [3],89.68 ± 4.59 % of control
same,Relative inhibition,BSEP; [3],10%
same,ATP-dependent transport,BSEP; [4],"3,105.00 ± 99.98 cpm"
same,Relative ATP-dependent transport,BSEP; [4],62.69 ± 3.53 % of control
same,Relative inhibition,BSEP; [4],37%
same,ATP-dependent transport,BSEP; 100.00 μM nominal,"1,103.00 ± 205.45 cpm"
same,Relative ATP-dependent transport,BSEP; 100.00 μM nominal,22.53 ± 4.22 % of control
same,Relative inhibition,BSEP; 100.00 μM nominal,77%
same,ATP-dependent transport,BSEP; [5],"1,333.33 ± 146.13 cpm"
same,Relative ATP-dependent transport,BSEP; [5],26.92 ± 3.20 % of control
same,Relative inhibition,BSEP; [5],73%
same,maximum inhibition of BSEP-mediated taurocholate accumulation,"BSEP; 2-concentration assay, up to 100 μM (Compound A up to 35 μM)",77%
same,Maximum % inhibition,"BSEP; BSEP, inside-out membrane vesicles, TC (0.2 μM), NIO: No inhibition observed",73%
same,maximum inhibition of BSEP-mediated taurocholate accumulation,BSEP; follow-up assay,73%
same,IC50,BSEP; [6],45.3 µM
